Columns and labels:
Type in all cases: functional
Fusarium graminearum = test: Fungicidal activity against Fusarium graminearum H3 assessed as mycelial growth inhibition at 25 mg/L after 3 days; conditions: H3, 72 h, read-out: GI
Pyrenophora graminea = test: Fungicidal activity against Pyrenophora graminea IFO-7507 assessed as mycelial growth inhibition at 25 mg/L after 3 days; conditions: IFO-7507, 72 h, read-out: GI
Rhizoctonia solani = test: Fungicidal activity against Rhizoctonia solani ET0007 assessed as mycelial growth inhibition at 25 mg/L after 1 day; conditions: ET0007, 24 h, read-out: GI
Alternaria alternata = test: Fungicidal activity against Alternaria alternata APS-38 assessed as mycelial growth inhibition at 25 mg/L after 3 days; conditions: APS-38, 72 h, read-out: GI
Rhynchosporium secalis = test: Fungicidal activity against Rhynchosporium secalis IFO-5290 assessed as mycelial growth inhibition at 25 mg/L after 14 days; conditions: IFO-5290, 336 h, read-out: GI
Microdochium nivale = test: Fungicidal activity against Microdochium nivale IFO-7432 assessed as mycelial growth inhibition at 25 mg/L after 3 days; conditions: IFO-7432, 72 h, read-out: GI
Zymoseptoria tritici = test: Fungicidal activity against Zymoseptoria tritici S3 assessed as mycelial growth inhibition at 25 mg/L after 14 days; conditions: S3, 336 h, read-out: GI
Cercospora beticola = test: Fungicidal activity against Cercospora beticola Be-2-6 assessed as mycelial growth inhibition at 25 mg/L after 7 days; conditions: Be-2-6, 168 h, read-out: GI
Gaeumannomyces graminis = test: Fungicidal activity against Gaeumannomyces graminis MAFF305168 assessed as mycelial growth inhibition at 25 mg/L after 1 day; conditions: MAFF305168, 24 h, read-out: GI

Structure (SMILES) | inhibition of growth at 25 µg/mL (Fusarium graminearum) [%] | inhibition of growth at 25 µg/mL (Pyrenophora graminea) [%] | inhibition of growth at 25 µg/mL (Rhizoctonia solani) [%] | inhibition of growth at 25 µg/mL (Alternaria alternata) [%] | inhibition of growth at 25 µg/mL (Rhynchosporium secalis) [%] | inhibition of growth at 25 µg/mL (Microdochium nivale) [%] | inhibition of growth at 25 µg/mL (Zymoseptoria tritici) [%] | inhibition of growth at 25 µg/mL (Cercospora beticola) [%] | inhibition of growth at 25 µg/mL (Gaeumannomyces graminis) [%]
CCn1oc(C)cc1=O | 4 | 6 | 0 | 21 | 13 | 0 | 0 | 2 | 3
CCCn1oc(C)cc1=O | 8 | 16 | 15 | 11 | 2 | 4 | 0 | 4 | 3
Cc1cc(O)no1 [HYMEXAZOL] | 45 | 80 | 28 | 74 | 100 | 77 | 86 | 88 | 56

Source: ChEMBL document CHEMBL3044528, “Potential new fungicides: N-acyl-5-methyl-3(2H)-isoxazolone derivatives” (2012)
